# According to paper PMC11189555, “Aryl amino acetamides prevent Plasmodium falciparum ring development via targeting the lipid-transfer protein PfSTART1” (Nature Communications, 2024):
# Several values for one entry are separate records, joined by “and”; a condition that tells them apart may be missing. Equal values may be shown once.
# What was measured:
# in vitro = settings: human
# [1] = molecular target: T1, recombinant PfSTART1(WT) (I149-V394) (Plasmodium falciparum, UniProt Q8I298); experiment: Isothermal titration calorimetry; assay type: binding; settings: for Differential Power DP_Y / ΔH NDH_Y: PfSTART(WT), ITC replicate data
# T1 construct: START domain alone (I149-V394 from PF3D7_0104200); 8xHis tag (N); TEV protease cleavage site (N); made in house; host or cells: Sf21 insect cells (baculovirus)
# T1 sequence (Q8I298 entry or part of it): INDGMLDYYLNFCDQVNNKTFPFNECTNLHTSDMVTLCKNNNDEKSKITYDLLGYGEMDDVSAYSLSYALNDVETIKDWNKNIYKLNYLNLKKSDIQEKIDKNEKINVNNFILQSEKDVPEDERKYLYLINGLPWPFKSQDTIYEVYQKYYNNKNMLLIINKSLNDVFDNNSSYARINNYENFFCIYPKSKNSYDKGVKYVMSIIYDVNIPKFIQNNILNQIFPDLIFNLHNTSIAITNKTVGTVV
# From the text: Codon optimised (Spodoptera frugiperda, Sf) START domain alone (I149-V394 from PF3D7_0104200) was synthesised by Integrated DNA Technologies and cloned into a modified baculovirus transfer vector (pAcGP67-A) with a N-terminal GP67-signal sequence, 8xHis tag, and TEV protease cleavage site. Recombinant baculovirus was generated via the flashBACTM Baculovirus Expression System using Sf21 cells (Life Technologies), amplified to reach a third passage viral stock, and 1.5% used to infect Sf21 for protein expression. After incubation for three days at 28 °C, media containing secreted protein was harvested by centrifugation and supplemented with 50 mM Tris pH 7.5, 20 mM MgCl2, 100 mM NaCl, and 10-20 mM imidazole. The supplemented protein sample was purified by nickel affinity chromatography (HisTrap Excel 5 mL, Cytiva), and eluted with 20 mM Tris pH 7.5, 500 mM NaCl, 300-500 mM imidazole. Eluted fractions were further purified using size-exclusion chromatography (Superdex S75 16/600 or Superdex 10/300, Cytiva) with the column pre-equilibrated with 20 mM HEPES pH 7.5, 150 mM NaCl, and peak-containing fractions concentrated and stored at -80 °C until required. If required, prior to ITC, a second size-exclusion chromatography step was performed to remove soluble aggregates.
# ITC experiments were performed on a MicroCal PEAQ-ITC calorimeter at 25 °C, with a stirring speed of 750 rpm and a reference power of 5 μcal/sec. 500 μM M-833 series inhibitor solutions were diluted to 10 μM in 50 mM NaPO4^-3 (pH 7.4), 150 mM NaCl with a final DMSO concentration of 2% (v/v) (cell sample). PfSTART1 protein was dialysed extensively against 50 mM NaPO4^-3 (pH 7.4), 150 mM NaCl, before diluting to 90 μM in the same buffer with 2% (v/v) DMSO (syringe sample). The first injection was 0.4 μL over a 0.8 s duration, and the remaining 19 injections were 2 μL of 4 s duration, with 150 s injection spacing. Data were collected and analysed using the PEAQ-ITC software (MicroCal) and fit by a single site binding model. A fitted offset (constant control heat) was also applied to the integrated heat.
# [2] = system: 3D7 P. falciparum parasites; experiment: Growth inhibition assay (72 h, LDH activity); assay type: cell-based, Plasmodium falciparum; settings: for NORMALISED (growth inhibition, LDH absorbance vs DMSO and uRBC): 3D7, 2.5 mM GlcN
# Experimental: Parasite growth assays with inhibitory compounds were performed as per[11] and are fully described in the Supplementary Information. […]
# Growth inhibition assays. Synchronised ring-stage parasites (0.3-0.6% parasitemia, 2% haematocrit) were grown for 72 h in a serial-dilution of the compound under […]
# and compound 4. Note that M-833 was first purchased from MolPort (MolPort -002-267-916) then made in-house at WEHI: the differences observed in EC50s across experiments are attributed to the different batches of M -833. For some experiments, 0, 0.25 or 2.5 mM of glucosamine (GlcN) was also added. Experiments were set up in technical duplicates or triplicates. Following a freeze -thaw cycle, lactate dehydrogenase (LDH) activity was assessed as an indicator of parasite growt h 5. 30 μL of parasite culture was incubated for 30 min in the dark with 75 μL Malstat mixture (0.1 M Tris pH 9.0, 20 g/L lactic acid, pH 7.5, 0.2% Triton-X100, 0.5 g/L acetylpyridine adenine dinucleotide (APAD, Sigma), 200 μg/mL nitroblue tetrazolium (NBT; Sigma), 1 μg/mL phenozine ethosulfate (PES; Sigma)). Absorbance was then measured at 650 nm, transformed using the formula below, plotted against the logarithm of the concentrations, and a non-linear regression (log(inhibitor) vs. response, variable slope) was calculated using GraphPad Prism to assess the half-inhibitory […]
# Growth inhibition % = (1 − average(sample)− average(uRBC)) ∗ 100 […]
# The DMSO samples were also used to assess growth of parasite in the presence of 0.25 and 2.5 mM GlcN (normalised by DMSO in 0 mM GlcN). […]
compound,measurement,setting,value
Cc1cc(Cl)c(S(=O)(=O)N2CCCC2)cc1OCC(=O)NC1CCCCC1 [M-833],CC50,in vitro,> 40000 nM
same,Kd,"[1]; ITC, 25 °C, 90 µM PfSTART1 titrated into 10 µM compound, n = 2, ± SD",42 ± 12 nM
same,ΔH,"[1]; ITC, 25 °C, n = 2, ± SD",-7.6 ± 0.2 kcal/mol
same,−TΔS,"[1]; ITC, 25 °C, n = 2, ± SD",-2.5 ± 0.4 kcal/mol
same,Differential Power DP_Y,[1]; DP_X 0.083333,-0.001604
same,Differential Power DP_Y,[1]; DP_X 0.1,-0.001099
same,ΔH NDH_Y,[1]; NDH_X 0.104703,-8.4
same,ΔH NDH_Y,[1]; NDH_X 0.192876,-6.335
same,"sample/DMSO (growth inhibition vs DMSO, LDH)","[2]; 3D7, 0 mM GlcN, M-833 0.000508053 uM, biological replicates 1-3",0.3955
same,"sample/DMSO (growth inhibition vs DMSO, LDH)","[2]; 3D7, 0 mM GlcN, M-833 0.00152416 uM, biological replicates 1-4",3.899 and 0.6135 and 1.269 and -5.021
same,"sample/DMSO (growth inhibition vs DMSO, LDH)","[2]; 3D7, 0 mM GlcN, M-833 0.00457247 uM, biological replicates 1-4",7.9783 and -0.1897 and 1.9685 and -5.962
same,"sample/DMSO (growth inhibition vs DMSO, LDH)","[2]; 3D7, 0 mM GlcN, M-833 0.0137174 uM, biological replicates 1-4",6.577 and 0.4933 and 7.305 and 4.539
same,"sample/DMSO (growth inhibition vs DMSO, LDH)","[2]; 3D7, 0 mM GlcN, M-833 0.0411523 uM, biological replicates 1-4",17.0189 and 4.351 and 25.6124 and 2.634
same,"sample/DMSO (growth inhibition vs DMSO, LDH)","[2]; 3D7, 0 mM GlcN, M-833 0.123457 uM, biological replicates 1-4",41.0894 and 22.2426 and 56.6492 and 25.1037
same,"sample/DMSO (growth inhibition vs DMSO, LDH)","[2]; 3D7, 0 mM GlcN, M-833 0.37037 uM, biological replicates 1-4",84.744 and 69.3587 and 86.7673 and 75.1317
same,"sample/DMSO (growth inhibition vs DMSO, LDH)","[2]; 3D7, 0 mM GlcN, M-833 1.11111 uM, biological replicates 1-4",95.6718 and 89.236 and 91.7104 and 88.7258
same,"sample/DMSO (growth inhibition vs DMSO, LDH)","[2]; 3D7, 0 mM GlcN, M-833 3.33333 uM, biological replicates 1-4",96.655 and 91.1143 and 93.0446 and 90.6646
same,"Growth inhibition assay, NORMALISED","[2]; 3D7, 0 mM GlcN, conc 13.7174 nM",13.0746
same,"Growth inhibition assay, NORMALISED","[2]; 3D7, 0 mM GlcN, conc 41.1523 nM",31.4939
same,"Growth inhibition assay, NORMALISED","[2]; 3D7, 0 mM GlcN, conc 123.457 nM",59.8439
same,"Growth inhibition assay, NORMALISED","[2]; 3D7, 0 mM GlcN, conc 370.37 nM",84.7029
same,"Growth inhibition assay, NORMALISED","[2]; 3D7, 0 mM GlcN, conc 1111.11 nM",90.8825
same,"Growth inhibition assay, NORMALISED","[2]; 3D7, 0 mM GlcN, conc 3333.33 nM",92.758
same,"Growth inhibition assay, NORMALISED","[2]; 3D7, 0 mM GlcN, conc 10000 nM",93.376
same,"sample/DMSO (growth inhibition vs DMSO, LDH)","[2]; 3D7, 0.25 mM GlcN, M-833 0.000508053 uM, biological replicates 1-3",3.472 and 0.2055
same,"sample/DMSO (growth inhibition vs DMSO, LDH)","[2]; 3D7, 0.25 mM GlcN, M-833 0.00152416 uM, biological replicates 1-4",7.594 and 1.781 and -0.4107 and -3.683
same,"sample/DMSO (growth inhibition vs DMSO, LDH)","[2]; 3D7, 0.25 mM GlcN, M-833 0.00457247 uM, biological replicates 1-4",11.6683 and 13.0152 and -3.5254 and -4.48
same,"sample/DMSO (growth inhibition vs DMSO, LDH)","[2]; 3D7, 0.25 mM GlcN, M-833 0.0137174 uM, biological replicates 1-4",18.8525 and 10.2866 and 0.5749 and 7.343
same,"sample/DMSO (growth inhibition vs DMSO, LDH)","[2]; 3D7, 0.25 mM GlcN, M-833 0.0411523 uM, biological replicates 1-4",37.8978 and 20.6188 and 3.974 and 3.155
same,"sample/DMSO (growth inhibition vs DMSO, LDH)","[2]; 3D7, 0.25 mM GlcN, M-833 0.123457 uM, biological replicates 1-4",60.1495 and 44.3886 and 19.2191 and 24.7586
same,"sample/DMSO (growth inhibition vs DMSO, LDH)","[2]; 3D7, 0.25 mM GlcN, M-833 0.37037 uM, biological replicates 1-4",90.2604 and 84.0393 and 70.7607 and 72.7038
same,"sample/DMSO (growth inhibition vs DMSO, LDH)","[2]; 3D7, 0.25 mM GlcN, M-833 1.11111 uM, biological replicates 1-4",94.6962 and 95.3762 and 89.746 and 88.7379
same,"sample/DMSO (growth inhibition vs DMSO, LDH)","[2]; 3D7, 0.25 mM GlcN, M-833 3.33333 uM, biological replicates 1-4",94.1176 and 95.9927 and 91.6288 and 90.366
same,"Growth inhibition assay, NORMALISED","[2]; 3D7, 0.25 mM GlcN, conc 123.457 nM",65.6199 and 63.1151
same,"Growth inhibition assay, NORMALISED","[2]; 3D7, 0.25 mM GlcN, conc 370.37 nM",87.6963 and 91.9897
same,"Growth inhibition assay, NORMALISED","[2]; 3D7, 0.25 mM GlcN, conc 1111.11 nM",93.5707 and 96.2430
same,"Growth inhibition assay, NORMALISED","[2]; 3D7, 0.25 mM GlcN, conc 3333.33 nM",94.9648 and 97.4583
same,"Growth inhibition assay, NORMALISED","[2]; 3D7, 0.25 mM GlcN, conc 10000 nM",98.3055 and 95.804
same,"NORMALISED (growth inhibition, LDH absorbance vs DMSO and uRBC)",[2]; M833 dilution point 1 of 10 (starting concentration 10 uM),96.8148 and 98.7231 and 95.2456
same,"NORMALISED (growth inhibition, LDH absorbance vs DMSO and uRBC)",[2]; M833 dilution point 2 of 10 from 10 uM start,95.7251 and 93.6187 and 97.3100
same,"NORMALISED (growth inhibition, LDH absorbance vs DMSO and uRBC)",[2]; M833 dilution point 3 of 10 from 10 uM start,96.9824 and 90.9335 and 96.6034
